“Also recorded” adds a separate entry of the source.

Assay [1] deals with ΔF508-CFTR (IBE-1 cells). Briefly: whole cell patch-clamp analysis of IBE-1 cells. In kind it is cell-based, human. The settings on record: for reversal potential: DSG-treated cells. As to the method: The bath (extracellular) solution contained: 140 mM N-methyl-Dglucamine (NMDG), 2 mM CaCl2, 1 mM MgCl2, 0.1 mM CdCl2, 10 mM HEPES, 4 mM CsCl, and 10 mM glucose, pH 7.4. These solutions were designed so as to study only currents flowing through Cl^- channels, since Cl^- was the only significant permeant ion in the solutions. Furthermore, Ca^2+ -activated Cl^- currents were minimized by inclusion of 10 mM EGTA in the intracellular solution and 100 μM of Cd^2+ in the extracellular bath. K^+ currents were minimized by including 20 mM TEA in the intracellular solution. Aspartate was used as the replacement anion in experiments in which extracellular Cl^- concentration was changed. Forskolin (10 μM), IBMX (100 μM), 8-(4-chlorophenylthio)-cAMP (cpt-cAMP, 200 μM), diphenylamine carboxylic acid (DPC, 200 μM), UTP (100 μM), and ionomycin (1 μM) were added to the bath solutions as indicated. Current recordings were made from the same cells before, during, and after exposure to the solutions containing the different agonists or inhibitors. All experiments were performed at room temperature (22° C.). Currents were filtered at 2 kHz. Data acquisition and analysis were performed using the PCLAMP 5.5.1 software (Axon Instruments, Foster City, Calif.).
In all of the successfully patched CF IBE-1 cells from 6 separate coverslips no activation of whole cell currents in response to forskolin (10 μM) plus IBMX (100 μM) or cpt-cAMP (200 μM) was detected (FIG. 10A and 10B), indicating no endogenous CFTR channel activity in these cells. In contrast, in 7 out of 19 successful patched cells from 19 separate coverslips treated with DSG (10 μM) for 48 to 72 hrs. a significant activation of whole cell currents was observed. As all the other cells, the holding potential was 0 m, which inactivated the voltage-gated Na^+ and Ca^++ channels. After addition of 200 μM cpt-cAMP to the bath solution, voltage steps from the holding potential to between -100 mV and 80 mV in 20 mV increments activated whole cell currents. In these experiments, the intracellular and extracellular solutions were designed to study only current flowing through Cl^- channels, since Cl^- is the only significant permeant ion in solution. Ca^++ and K^+ currents were minimized by 100 μM of extracellular Cd^++ and 20 mM of intracellular TEA respectively. Furthermore, the currents were ascertained to be Cl^- currents from change in the reversal potential which was shifted from 1.1±1.5 to 47.3±6.1 mV by reducing extracellular Cl^- from 150 mM to 20 mM.
It is highly unlikely that Ca^++ -activated Cl^- was recorded in these experiments because of the presence of 10 mM intracellular EGTA and 100 µM extracellular Cd^++. […] Special attention was paid to detect possible contribution of the outwardly rectifying Cl^- channel (ORCC) to the whole cell currents. Because of a possible upregulatory role of CFTR, ORCC can be activated in normal but not in CF airway epithelial cells (Hwang et al. (1989), supra.; Li et al. (1988), Nature 331: 358-360; Morris and Frizzel (1993); Am. J. Physiol.; Schwiebert et al. (1994), Am. J. Physiol.).
A general note: Patch clamp records ionic current or voltage across a cell membrane.

Assay [2] relates to ΔF508-CFTR (IBE-1 cells). Briefly: SPQ halide efflux assay, cAMP-stimulated Cl- channel activity, IBE-1 cells. The conditions noted are these: DSG 5 to 50 μg/ml, 72 h. In kind it is cell-based, human. As to the method: The cAMP-dependent CFTR Cl^- channel activity was assessed using the halide-sensitive fluorophore 6-methoxy-N-(3-sulfopropyl)-quinolinium (SPQ) essentially as described previously (Cheng et al., (1995), supra.; Marshall et al., supra.). Briefly, the cells were treated with different amounts of DSG for the times specified. At the end of the treatment period, the cells were loaded with SPQ by hypotonic shock for 4 min at room temperature. SPQ fluorescence initially was quenched by incubating the cells for up to 30 min in a NaI buffer (135 mM NaI, 2.4 mM K2 HPO4, 0.6 mM KH2 PO4, 1 mM MgSO4, 1 mM CaSO4, 10 mM dextrose, and 10 mM N-2 hydroxyethylpiperazine-N'2-ethanesulfonic acid, pH 7.4). After measuring the baseline fluorescence (Fo) for 2 min., the NaI solution was replaced with one containing 135 mM NaNO3, and fluorescence was measured for another 16 min. […]
An increase in halide permeability is reflected by a more rapid increase in SPQ fluorescence. […] Differences in absolute levels reflect quantitative differences between groups in SPQ loading, size of cells, or number of cells studied. The data are presented as means± SE of fluorescence at time t (Ft) minus the baseline fluorescence (Fo, the average fluorescence measured in the presence of I^- for 2 min. before ion substitution) and are representative of results obtained under each condition. […]

Assay [3] deals with hsp90. The conditions noted are these: read-out: kds, DSG-hsp complexes; cited from earlier work.

As for `N=C(N)NCCCCCCC(=O)NC(O)C(=O)NCCCCNCCCN` (stereo not shown) [DSG, deoxyspergualin], the “successfully patched cells with significant activation of whole cell currents” value in assay [1] (DSG (10 μM) 48 to 72 hrs, cAMP stimulation) is 7 out of 19. The reversal potential in assay [1] (extracellular Cl- 150 mM) worked out at 1.1±1.5 mV; in assay [1] (extracellular Cl- reduced to 20 mM), 47.3±6.1 mV. For the same molecule, the “whole cell currents, in words” value in assay [1] (IBE-1 cells) is recorded as “resembled those of wild-type CFTR in epithelial cells; also recorded: almost identical to that recorded in transduced CF IBE-1 cells”. The “cAMP-stimulated Cl- channel activity, in words” value in assay [2] was “concentration-dependent, with higher concentrations of DSG giving rise to greater transport rates and higher numbers of positively-responding cells; also recorded: comparable to that observed when these cells were cultured at a reduced temperature”. Also, in assay [2] (FIG. 9B), the “cells exhibiting measurable cAMP-stimulated Cl- channel activity” value was “up to 20%”. In assay [3], the Kd was 4 to 5 µM.
